This assay addresses Peptidyl-prolyl cis-trans isomerase FKBP1A (Homo sapiens, UniProt P62942). Briefly: Binding affinity towards immunophilin cytosolic protein FK506 binding protein 12 was determined.

We go through two compounds from ChEMBL document CHEMBL1127921, “Synthesis and study of a non macrocyclic FK506 derivative” (Bioorg Med Chem Lett, 1994).

Peptidyl-prolyl cis-trans isomerase FKBP1A, sequence (P62942 whole entry): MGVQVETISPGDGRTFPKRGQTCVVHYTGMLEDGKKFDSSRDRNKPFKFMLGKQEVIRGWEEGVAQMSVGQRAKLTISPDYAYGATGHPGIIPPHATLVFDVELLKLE

Broadly, the Ki is the dissociation constant of the complex between target and ligand, obtained from inhibition or displacement. A lower Ki goes with a stronger hold on the target. Turning to `C=CCC(CC=C)C(=O)C[C@H](O)[C@@H](C)[C@H](OC(=O)[C@@H]1CCCCN1C(=O)C(=O)[C@]1(O)O[C@H]([C@H](/C=C\C)OC)CC[C@H]1C)[C@H](C)C[C@@H]1CC[C@@H](O)[C@H](OC)C1`, the Ki worked out at 207 nM.

Turning to `CCC[C@H](/C=C(\C)C[C@H](C)C[C@H](OC)[C@H]1O[C@@](O)(C(=O)C(=O)N2CCCC[C@H]2C(=O)O[C@H](/C(C)=C/[C@@H]2CC[C@@H](O)[C@H](OC)C2)C(C)C)[C@H](C)C[C@@H]1OC)C(C)=O`, the inhibitory constant (Ki) turned out to be 400 nM.
